Experimental data: patent US20030152986A1, “Method for sorting antifungal molecules acting on the glucanosyltransferase activity” (Institut Pasteur, priority 1996, published 2003)
Changes are numbered by the printed parent chain.

T1: 49 kDa enzyme (Aspergillus fumigatus, UniProt B0XT72)
T1 construct: from tissue; host or cells: Aspergillus fumigatus CBS 144-89 mycelium, cell wall autolysate; four ion-exchange steps and one gel filtration
T1 sequence (B0XT72 whole entry, looked up): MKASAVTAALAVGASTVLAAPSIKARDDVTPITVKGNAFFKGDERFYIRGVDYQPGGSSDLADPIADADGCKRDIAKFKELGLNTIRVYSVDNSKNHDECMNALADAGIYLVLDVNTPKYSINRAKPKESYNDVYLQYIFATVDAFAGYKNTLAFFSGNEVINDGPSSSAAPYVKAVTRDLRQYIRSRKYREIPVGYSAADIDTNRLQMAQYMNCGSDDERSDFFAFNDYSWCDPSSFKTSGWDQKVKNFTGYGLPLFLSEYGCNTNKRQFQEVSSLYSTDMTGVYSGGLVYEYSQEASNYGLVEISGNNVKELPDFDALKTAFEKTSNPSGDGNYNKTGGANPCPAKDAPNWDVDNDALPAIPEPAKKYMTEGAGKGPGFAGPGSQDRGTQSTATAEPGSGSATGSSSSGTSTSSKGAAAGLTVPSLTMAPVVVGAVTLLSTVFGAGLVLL

B1: 49 kDa enzyme: β-(1-3)-glucanosyltransferase purified from cell wall autolysate of A. fumigatus, SEQ ID NO 2/3 (protein, listed as Aspergillus fumigatus)
chain 1: T1 sequence (B0XT72 whole entry, looked up) with A103T
chain 2: DDVTPITVKGNAFFKGDERFYIRGVDYQPGGSSDLADPIADADGCKRDIAKFKELGLNTIRVYSVDNSKNHDECMNTLADAGIYLVLDVNTPKYSINRAKPKESYNDVYLQYIFATVDAFAGYKNTLAFFSGNEVINDGPSSSAAPYVKAVTRDLRQYIRSRKYREIPVGYSAADIDTNRLQMAQYMNCGSDDERSDFFAFNDYSWCDPSSFKTSGWDQKVKNFTGYGLPLFLSEYGCNTNKRQFQEVSSLYSTDMTGVYSGGLVYEYSQEASNYGLVEISGNNVKELPDFDALKTAFEKTSNPSGDGNYNKTGGANPCPAKDAPNWDVDNDALPAIPEPAKKYMTEGAGKGPGFAGPGSQDRGTQSTATAEPGSGSATGSSSSGTSTSSKGAAAGLTVPSLTMAPVVVGAVTLLSTVFGAGLVLL

Tests used:
[1] = molecular target: T2, 49 kDa β-(1-3)-glucanosyltransferase (BGT2) (Aspergillus fumigatus, UniProt B0XT72); experiment: Transferase assay with reduced (^3H-marked) laminarioligosaccharides, products separated by HPAEC; assay type: biochemical; conditions: for activity of the transferase towards the substance as substrate/donor: incubation with 49 kDa transferase, HPAEC analysis of products
T2 construct: from tissue; host or cells: Aspergillus fumigatus CBS 144-89 mycelium, cell wall autolysate; four ion-exchange steps and one gel filtration
Protocol: The enzyme fractions were assayed for transferase activity by incubation in 50 mM Na citrate, pH 5.0 at 37° C. (10 μl volume per assay) with a laminarioligosaccharide reduced with borohydride (8 mM final) of at least size G10. Samples (3 μl) were taken at different times, 50 mM NaOH cooled in ice (47 μl) was added to terminate the reaction, and the mixture was frozen until analyzed by high-performance anion-exchange chromatography (HPAEC). Since the peak intensities detected by Pulsed Electrochemical Detector (PED) varied from day to day, the transferase activity was quantified by use of reduced laminarioligosaccharides marked with ^3H as substrates and measurement of the appearance of the marking in the products after separation by HPAEC chromatography, using the on-line Radiomatic 150TR scintillation rate analysis apparatus (Packard).
Except where otherwise mentioned, the assays for the enzyme characterization studies were performed as above with 0.25 μg of purified transferase.
The samples from the transferase tests were analyzed on a Dionex CarboPac PA1 analytical column (4×250 mm) (with a PA1 reference column) on a Dionex HPAEC-type system with pulsed electrochemical detection (PED-2 cell), fitted with a combination of pH-Ag/AgCl reference electrodes and using a potential of 0.4 V for the first 0.5 s of detection. The oligosaccharides were eluted under the following conditions: flow rate 1 ml/min, buffer A: 50 mM NaOH; buffer B: 500 mM sodium acetate in 50 mM NaOH; gradient 0 to 2 min, 98% A 2% B (isocratic), 2 to 15 min 75% A 25% B (linear), 15 to 45 min 60% A 40% B (linear).
In order to determine the relative reaction rate of the enzymes with laminarioligosaccharides of variable sizes, the 49 kDa enzyme (0.25 μg) was incubated with 8 mM of rG10 to rG15 marked with ^3H and the rate of formation of the marked products was measured. The rate with rG10 (328 nmol.min^−1) was approximately equal to 50% of that with the larger substrates and there was no significant difference between the reaction rates for rG11 to rG15 (648±46 nmol.min^−1.mg protein^−1).
The relative rate of the reaction with the acceptors was determined by using 2 mM of rG11 as donor and 32 mM of reduced acceptor marked with ^3H and measuring the formation of marked transferase product (FIG. 4). Under these conditions, the reaction with rG11 used as acceptor was negligible. The reaction rate increased with an increase in chain length, showing that the 49 kDa enzyme prefers the larger laminarioligosaccharide acceptors.
By using rG11 as substrate, it was impossible to calculate an apparent Km corresponding to the two steps of the reaction. In order to determine a Km for the donor site, we used an acceptor which was not a donor. We used [^3H]-rG7 (1×10^6 cpm) as acceptor at a high concentration (64 mM) with different concentrations of rG11 kept below 8 mM. Under these conditions, the reaction took place with rG11 as donor and rG7 was used rather than rG11 as acceptor, as determined by the absence of formation of the transferase product rG16. The initial reaction rate was determined by measuring the appearance of marked rG12.

49 kDa enzyme = molecular target: T1, 49 kDa enzyme; experiment: Optimum pH and storage stability of the 49 kDa enzyme; assay type: biochemical
Protocol: FIG. 6 illustrates the effect of pH on the transfer rate. The 49 kDa transferase was incubated with 8 μM of [^3H]-rG11 (1×10^6 cpm). The reaction rates were determined by measuring the quantity of marking formed in the form of the product rG16. The buffers used were: ●, sodium citrate/citric acid; ∘, imidazole/citric acid; x, sodium acetate/acetic acid; [formula], Tris/glycine; ▴, phosphate/NaOH; □, Tris/acetic acid; Δ, glycine/HCl.
The 49 kDa enzyme was tested at different pH values, the storage stability was verified and the activity of the N-glycosylated enzyme was tested. The enzyme was active over a wide range of acid pH, showing an activity of more than 50% of its maximum between pH 2.5 and 6.0.

Molecule	activity of the transferase towards the substance as substrate/donor [1]	further results
chitohexaose	no activity	
maltoheptaose	no activity	
gentiooligosaccharides	no activity	
reduced laminarihexose [[^3H]-rG6]		Transfer rate ([1]; 2 mM rG11 as donor, 32 mM ^3H-marked reduced acceptor, initial rate of formation of transfer product): 387 nmol.min^−1.mg protein^−1
OC[C@H]1O[C@@H](O[C@H]2[C@H](O)[C@@H](O)[C@H](O[C@H]3[C@H](O)[C@@H](O)[C@H](O[C@H]4[C@H](O)[C@@H](O)[C@H](O[C@H]5[C@H](O)[C@@H](O)C(O)O[C@@H]5CO)O[C@@H]4CO)O[C@@H]3CO)O[C@@H]2CO)[C@H](O)[C@@H](O)[C@@H]1O (stereo partly shown) [ceflopentaose]	no activity	
B1		storage stability (49 kDa enzyme; 4° C. in 10 mM citrate buffer pH 5.0 for several weeks, speed-vac dried and re-suspended, or −20° C.): without significant loss of activity; pH optimum (49 kDa enzyme; citrate buffer): about 5.0
